From ChEMBL document CHEMBL1201862, “PubChem BioAssay data set” (2004)
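48-hour exposure; five concentrations; linearly interpolated endpoints. At the GI50, growth is halved.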 The source made the active and inactive calls. Rule as the data show it: active = GI50 up to about 1.1 µM and inactive = higher.

Key:
Assay in all cases: growth of human tumour cells (NCI), 48 h
[1] = test system: A498
[2] = test system: A549
[3] = test system: DU-145
[4] = test system: HCC 2998
[5] = test system: K562
[6] = test system: LOX IMVI
[7] = test system: M14
[8] = test system: NCI-H23
[9] = test system: NCI-H460
[10] = test system: NCI-H522
[11] = test system: OVCAR-4
[12] = test system: OVCAR-8
[13] = test system: PC-3
[14] = test system: SF-268
[15] = test system: SK-MEL-28
[16] = test system: SK-OV-3
[17] = test system: SN12C
[18] = test system: SR
[19] = test system: SW-620
[20] = test system: UO-31

Measured: GI50

C=CCOc1ccccc1/N=N/C(C#N)=N\Nc1ccccc1OCC=C
inactive: [1] > 100 µM | [2] > 100 µM | [3] > 100 µM | [4] 48.1 µM | [5] > 100 µM | [6] > 100 µM | [7] > 100 µM | [8] > 100 µM | [9] > 100 µM | [10] > 100 µM | [11] > 100 µM | [12] > 100 µM | [13] > 100 µM | [14] > 100 µM | [15] > 100 µM | [16] > 100 µM | [17] > 100 µM | [18] > 100 µM | [19] > 100 µM | [20] > 100 µM

CC(C)CC(=O)OC[n+]1ccc(-c2c(COC(=O)NC(C)C)c(COC(=O)NC(C)C)c3n2CCC3)cc1
inactive: [1] 84.3 µM | [2] > 100 µM | [3] > 100 µM | [4] > 100 µM | [5] > 100 µM | [6] > 100 µM | [7] > 100 µM | [8] 75.2 µM | [9] 76.9 µM | [10] > 100 µM | [11] > 100 µM | [12] > 100 µM | [13] > 100 µM | [14] > 100 µM | [15] > 100 µM | [16] > 100 µM | [17] > 100 µM | [18] 6.19 µM | [19] > 100 µM | [20] > 100 µM

OCCN(C1=NCCN1)/[N+](=C\c1ccccn1)[CH-]c1ccccn1
inactive: [1] > 100 µM | [2] > 100 µM | [3] > 100 µM | [4] > 100 µM | [5] > 100 µM | [6] > 100 µM | [7] > 100 µM | [8] > 100 µM | [9] > 100 µM | [10] > 100 µM | [11] > 100 µM | [12] > 100 µM | [13] > 100 µM | [14] > 100 µM | [15] > 100 µM | [16] > 100 µM | [17] > 100 µM | [18] 8.87 µM | [19] > 100 µM | [20] > 100 µM

CC1CNc2ccccc2N=C1NN (stereo not given)
inactive: [1] > 100 µM | [2] > 100 µM | [3] > 100 µM | [4] > 100 µM | [5] > 100 µM | [6] > 69.8 µM | [7] > 100 µM | [8] > 100 µM | [9] > 100 µM | [10] > 100 µM | [11] > 100 µM | [12] > 100 µM | [13] > 100 µM | [14] > 100 µM | [15] > 100 µM | [16] > 100 µM | [17] > 100 µM | [18] > 100 µM | [19] > 100 µM | [20] > 100 µM

O=c1c2c3c(sc2nc(S)n1-c1ccccc1)CCCc1ccc([N+](=O)[O-])cc1-3
inactive: [1] 41 µM | [2] 42.9 µM | [3] 48.9 µM | [4] 24.6 µM | [5] 11.7 µM | [6] 19.3 µM | [7] > 100 µM | [8] 30.5 µM | [9] 36 µM | [10] 13.9 µM | [11] 38.9 µM | [12] 28.8 µM | [13] 59.7 µM | [14] 36.1 µM | [15] > 100 µM | [16] > 100 µM | [17] 37.7 µM | [18] 27.4 µM | [19] 10.4 µM | [20] 26.9 µM

CC(C)(C)OC(=O)C1CCC/C1=N/Nc1ccc([N+](=O)[O-])cc1[N+](=O)[O-] (stereo not given)
inactive: [1] 13 µM | [2] 31.9 µM | [3] 47.2 µM | [4] 42.9 µM | [5] 15.7 µM | [6] 17.7 µM | [7] 39.6 µM | [8] 18 µM | [9] 37.9 µM | [10] 18.8 µM | [11] 74.5 µM | [12] 27.5 µM | [13] 10.3 µM | [14] 41.8 µM | [15] 54.7 µM | [16] 43 µM | [17] 40.7 µM | [18] 26.1 µM | [19] 27.9 µM | [20] 17.6 µM

CC1CC2CCCC(=O)C2=C(O)O1 (stereo not given)
inactive: [1] > 100 µM | [2] > 100 µM | [3] > 100 µM | [4] > 100 µM | [5] > 100 µM | [6] > 100 µM | [7] > 100 µM | [8] > 100 µM | [9] > 100 µM | [10] > 100 µM | [11] > 100 µM | [12] > 100 µM | [13] > 100 µM | [14] > 100 µM | [15] > 100 µM | [16] > 100 µM | [17] > 100 µM | [18] > 100 µM | [19] > 100 µM | [20] > 100 µM
